One assay has as its system STING1 locus in HSPCs. As to the kind of experiment: RNP/AAV6 gene targeting at STING1 locus in HSPCs. It is filed as cell-based, human. The conditions noted are these: seemingly inactive gRNA (sg5). The text has this:
(§1) ICE analysis for quantification of gene editing.
CD34+ HSPC culture and genome editing.

For another assay, the system named is CFTR locus in HBECs. As to the kind of experiment: RNP/AAV6 gene targeting at CFTR locus in HBECs. It is filed as cell-based, human. Conditions: 0.5 μM. How it is done:
as §1
Cell culture and genome editing of HBECs. Human bronchial epithelial cells (HBECs) were obtained from Lonza Inc., the Primary Airway Cell Biobank at McGill University, the Cystic Fibrosis Foundation Cell Bank or the University of North Carolina. […] Cells were cultured at 37° C. in 5% 02 and 5% CO2.

The subject of assay [1] is TRAC gene locus in T cells. Conditions: 0.5 μM; AAV6 MOI 1250 and 2500. The text has this:
(FIG. 34d). Next, we tested the effect of compound treatment when titrating down the AAV6 donor amounts for gene targeting at the CCR5 locus. […] For this, we assessed the CD19-CAR knock-in at the TRAC gene locus in T cells using a previously reported gene editing strategy^87 (FIG. 14c).

The values that follow come from US20250305004A1, “ENHANCING GENE TARGETING EFFICIENCY IN HUMAN CELLS WITH DNA-PK INHIBITOR TREATMENT” (The Board of Trustees of the Leland Stanford Junior …, priority 2022, published 2025).

Take `Cc1cc2ncnn2cc1Nc1ncc2c(n1)n(C1CCOCC1)c(=O)n2C` [AZD7648, 7-methyl-2-((7-methyl-[1,2,4]triazolo[l,5-a]pyridin-6-yl)amino)-9-(tetrahydro-2H-pyran-4-yl)-7,9-dihydro-8H-purin-8-one]: the “INDELs after gene targeting” value in the assay on STING1 locus in HSPCs is on record as “no INDELs”. In the assay with CFTR locus in HBECs (CF patient derived HBECs), the “alleles with INDELs vs untreated” value is recorded as “much lower frequency of alleles with INDELs”. In addition, in the assay on CFTR locus in HBECs (exon 1 knock-in), the “improvement of frequency of gene targeted (GFP+) cells” value is given as “around 2 fold”. Besides, in assay [1], the “increase in frequency of CD19-CAR+ T cells vs untreated” value was 1.4 fold.
